From patent US20080200448A1, “New Pyridine Analogues VIII 518” (ASTRAZENECA AB, priority 2007, published 2008)
Read-outs that look alike come from different tables or passages of the source.

Biological target: T1, P2Y12 receptor (Homo sapiens, UniProt Q9H244)
T1 construct: expressed in transfected cells; host or cells: CHO cells (membrane preparation)
Test: Functional inhibition of 2-Me-S-ADP induced P2Y12 signalling (35S-GTPγS binding, cell membranes)
Assay type: biochemical
Description: Functional inhibition of- the P2Y12 receptor can be measured by in vitro assays using cell membranes from P2Y12 transfected CHO-cells, the methodology is indicated below.
Functional inhibition of 2-Me-S-ADP induced P2Y12 signalling: 5 μg of membranes were diluted in 200 μl of 200 mM NaCl, 1 mM MgCl2, 50 mM HEPES (pH 7.4), 0.01% BSA, 30 μg/ml saponin and 10 μM GDP. To this was added an EC80 concentration of agonist (2-methyl-thio-adenosine diphosphate), the required concentration of test compound and 0.1 μCi ^35S-GTPγS. The reaction was allowed to proceed at 30° C. for 45 min. Samples were then transferred on to GF/B filters using a cell harvester and washed with wash buffer (50 mM Tris (pH 7.4), 5 mM MgCl2, 50 mM NaCl). Filters were then covered with scintilant and counted for the amount of ^35S-GTPγS retained by the filter. Maximum activity was that determined in the presence of the agonist and minimum activity in the absence of the agonist following subtraction of the value determined for non-specific activity. The effect of compounds at various concentrations was plotted according to the equation
y=A+((B−A)/(1+((C/x)̂D)))
and IC50 estimated where A is the bottom plateau of the curve i.e. the final minimum y value B is the top of the plateau of the curve i.e. the final maximum y value C is the x value at the middle of the curve. This represents the log EC50 value when A+B=100 D is the slope factor. x is the original known x values. Y is the original known y values.

[1] = 35S-GTPγS assay, membranes, EC80 concentration of 2-methyl-thio-adenosine diphosphate, 30° C. for 45 min, read-out: GTPγS (IC50 μM)

T1 sequence (Q9H244 whole entry): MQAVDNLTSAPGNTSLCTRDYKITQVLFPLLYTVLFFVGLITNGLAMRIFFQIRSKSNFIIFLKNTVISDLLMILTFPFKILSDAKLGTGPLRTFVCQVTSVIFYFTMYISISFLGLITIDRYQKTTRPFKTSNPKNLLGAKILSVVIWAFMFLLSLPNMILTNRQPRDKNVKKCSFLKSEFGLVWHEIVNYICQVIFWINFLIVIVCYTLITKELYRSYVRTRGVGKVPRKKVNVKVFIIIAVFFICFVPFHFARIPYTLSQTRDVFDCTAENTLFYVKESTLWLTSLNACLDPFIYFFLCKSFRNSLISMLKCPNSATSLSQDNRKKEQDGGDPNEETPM

| IC50 [1] | IC50 (functional inhibition of 2-Me-S-ADP induced P2Y12 signalling, membranes from P2Y12 transfected CHO-cells, EC80 concentration of agonist, read-out: IC50) | Compound |
| --- | --- | --- |
| 0.027 µM | – | CCOC(=O)c1cc(C#N)c(N2CCC(C(=O)NS(=O)(=O)Cc3ccccc3)CC2)nc1OCCN1CCCC1=O [Example 114, Ethyl 6-{4-[(benzylsulfonyl)carbamoyl]piperidin-1-yl}-5-cyano-2-[2-(2-oxopyrrolidin-1-yl)ethoxy]nicotinate] |
| 0.019 µM | – | CCOC(=O)c1cc(C#N)c(N2CC(C(=O)NS(=O)(=O)Cc3ccccc3)C2)nc1CN1CCCC1=O [Example 90, Ethyl 6-{3-[(benzylsulfonyl)carbamoyl]azetidin-1-yl}-5-cyano-2-[(2-oxopyrrolidin-1-yl)methyl]nicotinate] |
| 0.041 µM | – | CCOC(=O)c1cc(Cl)c(N2CCC(C(=O)NS(=O)(=O)Cc3ccccc3)CC2)nc1CN1CCCC1=O [Example 85, Ethyl 6-{4-[(benzylsulfonyl)carbamoyl]piperidin-1-yl}-5-chloro-2-[(2-oxopyrrolidin-1-yl)methyl]nicotinate] |
| 0.145 µM | – | CCOC(=O)c1cc(Cl)c(N2CCC(C(=O)NS(=O)(=O)Nc3ccc(F)cc3)CC2)nc1CN1CCCC1=O [Example 91, Ethyl 5-chloro-6-[4-({[(4-fluorophenyl)amino]sulfonyl}carbamoyl)piperidin-1-yl]-2-[(2-oxopyrrolidin-1-yl)methyl]nicotinate] |

Second part, the compound before the results:

| Compound | IC50 [1] | IC50 (functional inhibition of 2-Me-S-ADP induced P2Y12 signalling, membranes from P2Y12 transfected CHO-cells, EC80 concentration of agonist, read-out: IC50) |
| --- | --- | --- |
| CC(C)OC(=O)c1cc(C#N)c(N2CCC(C(=O)NS(=O)(=O)CC3CCC3)CC2)nc1CN1CCCC1=O [Example 81, Isopropyl 5-cyano-6-(4-{[(cyclobutylmethyl)sulfonyl]carbamoyl}piperidin-1-yl)-2-[(2-oxopyrrolidin-1-yl)methyl]nicotinate] | 0.094 µM | – |
| CCOC(=O)c1cc(C#N)c(N2CCC(C(=O)NS(=O)(=O)Cc3ccc(F)cc3F)CC2)nc1CN1CCCC1=O [Example 38, Ethyl 5-cyano-6-(4-{[(2,4-difluorobenzyl)sulfonyl]carbamoyl}piperidin-1-yl)-2-[(2-oxopyrrolidin-1-yl)methyl]nicotinate] | 0.0033 µM | – |
| CCOC(=O)c1cc(C#N)c(N2CCC(C(=O)NS(=O)(=O)Cc3ccccc3)CC2)nc1SCCO [Example 19, Ethyl 6-{4-[(benzylsulfonyl)carbamoyl]piperidin-1-yl}-5-cyano-2-[(2-hydroxyethyl)thio]nicotinate] | 0.016 µM | – |
| CCOC(=O)c1cc(C#N)c(N2CCC(C(=O)NS(=O)(=O)Cc3ccccc3)CC2)nc1CSCCC(=O)OC [Example 119, Ethyl 6-{4-[(benzylsulfonyl)carbamoyl]piperidin-1-yl}-5-cyano-2-{[(3-methoxy-3-oxopropyl)thio]methyl}nicotinate] | 0.042 µM | – |
| CCOC(=O)c1cc(C#N)c(N2CCC(C(=O)NS(=O)(=O)Cc3ccc(OC)cc3)CC2)nc1CN1CCCC1=O [Example 75, Ethyl 5-cyano-6-(4-{[(4-methoxybenzyl)sulfonyl]carbamoyl}piperidin-1-yl)-2-[(2-oxopyrrolidin-1-yl)methyl]nicotinate] | 0.0075 µM | – |
| CCOC(=O)c1cc(C#N)c(N2CCC(C(=O)NS(=O)(=O)Cc3ccccc3)CC2)nc1CS(C)(=O)=O [Example 12, Ethyl 6-{4-[(benzylsulfonyl)carbamoyl]piperidin-1-yl}-5-cyano-2-[(methylsulfonyl)methyl]nicotinate] | 0.129 µM | 0.13 µM |
| CCOC(=O)c1cc(C#N)c(N2CC(C(=O)NS(=O)(=O)Cc3ccccc3)C2)nc1COC(C)=O [Example 7, Ethyl 2-(acetoxymethyl)-6-{3-[(benzylsulfonyl)carbamoyl]azetidin-1-yl}-5-cyanonicotinate] | 0.076 µM | – |
| Cc1ccc(CS(=O)(=O)NC(=O)C2CCN(c3nc(CN4CCCC4=O)c(C(=O)OC(C)C)cc3C#N)CC2)cc1 [Example 45, Isopropyl 5-cyano-6-(4-{[(4-methylbenzyl)sulfonyl]carbamoyl}piperidin-1-yl)-2-[(2-oxopyrrolidin-1-yl)methyl]nicotinate] | 0.019 µM | – |
| CCOC(=O)c1cc(C#N)c(N2CCC(C(=O)NS(=O)(=O)Cc3ccc(F)cc3)CC2)nc1CN1CCCCC1=O [Example 62, Ethyl 5-cyano-6-(4-{[(4-fluorobenzyl)sulfonyl]carbamoyl}piperidin-1-yl)-2-[(2-oxopiperidin-1-yl)methyl]nicotinate] | 0.148 µM | – |
